One assay deals with thoracic aorta. In words: Extracted rat aorta, relaxation of KCl-induced constriction (Test Example 1). Conditions: relaxation of continuous constriction caused by 30 mM potassium chloride, rat aorta ring; read-out: 50% inhibitory concentration (IC50). It is filed as cell-based, male Sprague Dawley rat. The protocol: (§1) A thoracic aorta was extracted from male Sprague Dawley rat (450-600 g) to prepare a ring-formed sample having a width of 2 mm. The resulting sample was suspended at a tension of 2 g in an organ bath containing Krebs-Henseleit solution, and a gas composed of 95% oxygen and 5% carbon dioxide was passed therethrough. A constriction reaction of the sample was recorded isometrically by a FD pick-up. After equilibration for 1 to 1.5 hour, 30 mM potassium chloride was added in order to constrict the tissue, and an activity of the test compound for relaxing the continuous constriction caused by potassium chloride was evaluated by determining a 50% inhibitory concentration (IC50). As comparative compounds, N-(2-cyanoethyl)-2,2-dimethyl-6-nitro-2H-1-benzopyran-4-carbamide (Compound A) disclosed in WO 92/02514 and 6-trifluoromethyl--N-methyl-2,2-dimethyl-2H-1-benzopyran-4-carbothioamide (Compound B) disclosed in WO 92/14439 were used.
For the compound `CC1(C)C=C(C(=O)NCCC#N)c2cc(C(F)(F)C(F)(F)F)ccc2O1` [Compound 1, N-(2-cyanoethyl)-6-pentafluoroethyl-2,2-dimethyl-2H-1-benzopyran-4-carbamide], the IC50 was 0.24 nM.

`CC1(C)C=C(C(=S)NCCC#N)c2cc(C(F)(F)C(F)(F)F)ccc2O1` [Compound 2, N-(2-cyanoethyl)-6-pentafluoroethyl-2,2-dimethyl-2H-1-benzopyran-4-carbothioamide]: the IC50 worked out at 0.88 nM.

Consider `CC1(C)C=C(C(=O)NCCC#N)c2cc([N+](=O)[O-])ccc2O1` [Compound A, N-(2-cyanoethyl)-2,2-dimethyl-6-nitro-2H-1-benzopyran-4-carbamide, reference compound], for which the IC50 amounted to 2.8 nM.

Take `CNC(=S)C1=CC(C)(C)Oc2ccc(C(F)(F)F)cc21` [Compound B, 6-trifluoromethyl--N-methyl-2,2-dimethyl-2H-1-benzopyran-4-carbothioamide, reference compound]: the IC50 was 1.9 nM.

A further assay relates to thoracic aorta. In words: Extracted rat aorta, relaxation of KCl-induced constriction relative to maximum relaxation (Test Example 2). It is filed as cell-based, male Sprague Dawley rat. The settings on record: relaxation of continuous constriction caused by 30 mM potassium chloride, rat aorta ring, 2 ml organ bath; read-out: 50% inhibitory concentration (EC50) relative to the maximum relaxation effect of the compound. The protocol:
as §1, with “in a 2 ml” for “in an”, “concentration (EC50) of the compound relative to the maximum relaxation effect of the compound.” for “concentration (IC50). As comparative compounds, N-(2-cyanoethyl)-2,2-dimethyl-6-nitro-2H-1-benzopyran-4-carbamide (Compound A) disclosed in WO 92/02514 and 6-trifluoromethyl--N-methyl-2,2-dimethyl-2H-1-benzopyran-4-carbothioamide (Compound B) disclosed in WO 92/14439 were used.”
On to `N#CCCNC(=S)C1=CC(CF)(CF)Oc2ccc(C(F)(F)F)cc21` [Compound 3, N-(2-cyanoethyl)-2,2-bisfluoromethyl-6-tri-fluoromethyl-2H-1-benzopyran-4-carbothioamide], for which the EC50 was 0.021 nM.

In the case of `N#CCCNC(=S)C1=CC(CF)(CF)Oc2ccc(C(F)(F)C(F)(F)F)cc21` [Compound 4, N-(2-cyanoethyl)-6-pentafluoroethyl-2,2-bis-fluoromethyl-2H-1-benzopyran-4-carbothioamide], the EC50 was determined as 0.019 nM.

With `CC1(C)Oc2ccc(C#N)cc2C(N2CCCC2=O)C1O` (stereo not shown) [Cromakalim, cromakalim, reference compound], the EC50 was 170 nM.

The values are drawn from US5646310A, “N-(2-cyanoethyl)-6-fluoroalkyl-2h-1-benzopyran derivatives” (Chugai Seiyaku Kabushiki Kaisha, priority 1993, dated 1997).
